Test results taken from ChEMBL document CHEMBL1201862, “PubChem BioAssay data set” (2004).
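Growth conditions: 96-well plates. Treatment: test compound, 48 hours, 5 concentrations. Analysis: linear interpolation between bracketing concentrations; unreached endpoints set to highest concentration. Here, GI50 denotes the concentration required for 50% inhibition of growth.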 Activity calls are given as the source filed them. No stated cut-off is given here; in the data, active = GI50 up to about 1.1 µM and inactive = higher.

Assays:
Assay in all cases: NCI anticancer screen, dose series, 48 h
HCC 2998 = system: HCC 2998
SR = system: SR
BT-549 = system: BT-549
NCI-H226 = system: NCI-H226
NCI-H460 = system: NCI-H460
T47D = system: T47D
UO-31 = system: UO-31
786-0 = system: 786-0
IGROV-1 = system: IGROV-1
SK-MEL-2 = system: SK-MEL-2
ACHN = system: ACHN
UACC-62 = system: UACC-62
SNB-19 = system: SNB-19
MOLT-4 = system: MOLT-4
HCT-116 = system: HCT-116
EKVX = system: EKVX
SK-OV-3 = system: SK-OV-3
Malme-3M = system: Malme-3M
MDA-N = system: MDA-N
SN12C = system: SN12C

Measured: GI50

NC(=O)N/N=C/c1ccccc1O
inactive: HCC 2998 > 100 µM | SR > 100 µM | BT-549 > 100 µM | NCI-H226 > 100 µM | NCI-H460 > 100 µM | T47D > 100 µM | UO-31 > 100 µM | 786-0 > 100 µM | IGROV-1 > 100 µM | SK-MEL-2 > 100 µM | ACHN > 100 µM | UACC-62 > 100 µM | SNB-19 > 100 µM | MOLT-4 > 100 µM | HCT-116 > 100 µM | EKVX 45 µM | SK-OV-3 > 100 µM

OCC1(CNc2cc(Cl)ncn2)CCC1
inactive: SR > 100 µM | BT-549 > 100 µM | NCI-H226 > 100 µM | NCI-H460 > 100 µM | UO-31 > 100 µM | 786-0 > 100 µM | Malme-3M > 100 µM | IGROV-1 > 100 µM | MDA-N > 100 µM | SK-MEL-2 > 100 µM | ACHN > 100 µM | MOLT-4 > 100 µM | HCT-116 > 100 µM | EKVX > 100 µM | SN12C > 100 µM

CC(C)(C)NCc1cc(C(C)(C)C)cc(-c2ccc(Cl)cc2)c1O
inactive: HCC 2998 14.7 µM | SR 10.9 µM | BT-549 13.7 µM | NCI-H460 12.5 µM | UO-31 2.82 µM | 786-0 13.9 µM | Malme-3M 13.8 µM | IGROV-1 11.2 µM | MDA-N 16.1 µM | SK-MEL-2 18.4 µM | ACHN 13.8 µM | UACC-62 13.7 µM | SNB-19 15.7 µM | HCT-116 13.2 µM | EKVX 12.7 µM | SK-OV-3 17.1 µM | SN12C 15.2 µM

Cc1ccc(SCC(OCn2cnc3c(N)ncnc32)[C@H](C)F)cc1 (stereo partly drawn)
inactive: HCC 2998 > 100 µM | SR > 100 µM | BT-549 40.9 µM | NCI-H226 > 100 µM | NCI-H460 > 100 µM | T47D > 100 µM | UO-31 > 100 µM | 786-0 > 100 µM | Malme-3M > 100 µM | IGROV-1 > 100 µM | SK-MEL-2 > 100 µM | ACHN > 100 µM | UACC-62 > 100 µM | SNB-19 > 100 µM | MOLT-4 > 100 µM | HCT-116 > 100 µM | SK-OV-3 > 100 µM | SN12C > 100 µM

O=C1CC(NCc2ccccc2)c2c(Cl)sc(Cl)c21 (stereo not drawn)
inactive: HCC 2998 17.4 µM | SR 3.2 µM | BT-549 31 µM | NCI-H226 25.9 µM | NCI-H460 > 61.4 µM | T47D 73.1 µM | UO-31 31.4 µM | 786-0 17.1 µM | Malme-3M 18.5 µM | IGROV-1 26.1 µM | SK-MEL-2 19.5 µM | ACHN 22.3 µM | UACC-62 5.01 µM | SNB-19 33.7 µM | MOLT-4 4.23 µM | HCT-116 15.1 µM | EKVX 37.5 µM | SK-OV-3 > 74 µM | SN12C 26 µM

CCOC(=O)c1ccc(-c2cc(C)[nH]n2)[nH]1
inactive: BT-549 > 100 µM | NCI-H226 > 100 µM | NCI-H460 > 100 µM | T47D 85.5 µM | UO-31 > 100 µM | 786-0 > 100 µM | Malme-3M > 100 µM | MDA-N > 100 µM | SK-MEL-2 > 100 µM | ACHN > 100 µM | UACC-62 > 100 µM | SNB-19 > 100 µM | HCT-116 > 100 µM | EKVX 54.1 µM | SK-OV-3 > 100 µM | SN12C > 100 µM

O=C(CC(=O)CC(O)(C(F)(F)F)C(F)(F)F)CC(O)(C(F)(F)F)C(F)(F)F
inactive: BT-549 > 10 µM | NCI-H226 > 10 µM | NCI-H460 > 10 µM | T47D > 10 µM | UO-31 > 10 µM | 786-0 > 10 µM | Malme-3M > 10 µM | IGROV-1 > 10 µM | MDA-N > 10 µM | SK-MEL-2 > 10 µM | ACHN > 10 µM | UACC-62 > 10 µM | SNB-19 > 10 µM | MOLT-4 > 10 µM | HCT-116 > 10 µM | EKVX > 10 µM | SK-OV-3 > 10 µM | SN12C > 10 µM

Cn1cnc([N+](=O)[O-])c1[Se]c1ncnc2nc[nH]c12
inactive: SR 2.04 µM | BT-549 14.6 µM | NCI-H226 10.5 µM | NCI-H460 22.1 µM | T47D 15.2 µM | UO-31 3.65 µM | 786-0 10.4 µM | Malme-3M 3.72 µM | IGROV-1 3.38 µM | SK-MEL-2 10.4 µM | ACHN 17.1 µM | UACC-62 1.77 µM | SNB-19 24 µM | MOLT-4 4.71 µM | HCT-116 2.34 µM | EKVX 21.2 µM | SK-OV-3 15.4 µM | SN12C 11.7 µM
